Here are results for 19 compounds from PubChem BioAssay (NCI).

Among the test systems are DU-145 prostate; HCT-116 colon; HOP-62 NSCLC; HS 578T breast; LOX IMVI melanoma; MALME-3M melanoma; NCI-H460 lung; NCI/ADR-RES ovarian; SK-MEL-2 melanoma; SNB-19 CNS; UACC-257 melanoma.
What all share (experiment): NCI tumour cell line growth inhibition, 48 h

Structures are written as SMILES.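 Exposure lasted 48 hours, with cells grown in 96-well plates and compounds tested at five concentrations. Definition used: TGI = concentration required for complete inhibition of growth.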

On to `CC1(CCc2ccccc2)CC1(Br)Br` (centres undefined), for which the TGI is above 100 µM in the assay on DU-145 prostate; above 100 µM in the assay on HCT-116 colon; above 100 µM in the assay with HOP-62 NSCLC; above 100 µM in the assay with HS 578T breast; 37.4 µM with LOX IMVI melanoma; 68.3 µM in the assay on MALME-3M melanoma. Besides, the TGI is above 100 µM in the assay with NCI-H460 lung; above 100 µM in the assay with NCI/ADR-RES ovarian; 36.1 µM with SK-MEL-2 melanoma; above 100 µM with SNB-19 CNS; 83.6 µM in the assay on UACC-257 melanoma.
Regarding `CN(C)Cc1cc(C(C)(C)C)cc(CNC2CCCCC2)c1O`, the TGI was above 100 µM in the assay on DU-145 prostate; 71.5 µM with HCT-116 colon; above 100 µM with HOP-62 NSCLC; above 100 µM in the assay with HS 578T breast; 76.5 µM in the assay with LOX IMVI melanoma; 64 µM in the assay on MALME-3M melanoma. Further, the TGI was 44.6 µM with NCI-H460 lung; 69.4 µM in the assay with NCI/ADR-RES ovarian; above 100 µM with SK-MEL-2 melanoma; above 100 µM in the assay on SNB-19 CNS; 79.8 µM in the assay on UACC-257 melanoma.
Regarding `OCCN1CN(c2nc(N3CN(CCO)C3)nc(N3CN(CCO)C3)n2)C1`, the TGI with DU-145 prostate worked out at 54.7 µM; in the assay on HCT-116 colon it was 42 µM; in the assay on HOP-62 NSCLC, 39.2 µM; in the assay on HS 578T breast, 66.7 µM; in the assay with LOX IMVI melanoma, 33.5 µM; in the assay with MALME-3M melanoma, 39.3 µM. In addition, the TGI was 36.1 µM in the assay on NCI-H460 lung; above 100 µM in the assay on NCI/ADR-RES ovarian; 41.9 µM with SK-MEL-2 melanoma; 49.6 µM in the assay on SNB-19 CNS; 36.2 µM in the assay on UACC-257 melanoma.
For `N#Cc1ccc(OC(=O)c2ccc(N=C(N)N)cc2)cc1`, the TGI in the assay with DU-145 prostate, with HCT-116 colon, in the assay on HOP-62 NSCLC, with HS 578T breast, in the assay with LOX IMVI melanoma and in the assay with MALME-3M melanoma was above 100 µM throughout. Besides, the TGI in the assay on NCI-H460 lung, in the assay with NCI/ADR-RES ovarian, with SK-MEL-2 melanoma, in the assay on SNB-19 CNS and with UACC-257 melanoma was above 100 µM throughout.
Take `c1ccc2c(c1)CCN(C1=NCCO1)C2`: the TGI with DU-145 prostate, in the assay with HCT-116 colon, in the assay on HOP-62 NSCLC, with HS 578T breast, in the assay with LOX IMVI melanoma and with MALME-3M melanoma was above 10 µM throughout. Moreover, the TGI with NCI-H460 lung, in the assay on NCI/ADR-RES ovarian, in the assay with SK-MEL-2 melanoma, with SNB-19 CNS and in the assay on UACC-257 melanoma was above 10 µM each time.
In the case of `O=C(O)CS(=O)c1ccc2c3c(cccc13)C(=O)c1ccccc1-2` (centres undefined), the TGI with DU-145 prostate, in the assay on HCT-116 colon, with HOP-62 NSCLC, in the assay on HS 578T breast, in the assay with LOX IMVI melanoma and in the assay on MALME-3M melanoma was above 100 µM each time. Moreover, the TGI in the assay on NCI-H460 lung, in the assay on NCI/ADR-RES ovarian, with SK-MEL-2 melanoma, in the assay on SNB-19 CNS and in the assay with UACC-257 melanoma was above 100 µM throughout.
On to `Cc1ccc(C2(N3CCCC3)OC(C)(C)c3cccc4cccc2c34)cc1` (centres undefined), for which the TGI in the assay on DU-145 prostate worked out at 32.8 µM; in the assay with HCT-116 colon, 38.4 µM; in the assay on HOP-62 NSCLC, 32.3 µM; with HS 578T breast, 31.8 µM; in the assay on LOX IMVI melanoma, 29.3 µM; in the assay with MALME-3M melanoma it was 41.4 µM. Besides, the TGI was found to be 26.3 µM in the assay on NCI-H460 lung; 30.1 µM in the assay with NCI/ADR-RES ovarian; 28.2 µM in the assay with SK-MEL-2 melanoma; 29.8 µM with SNB-19 CNS; 31 µM with UACC-257 melanoma.
For the compound `CC(=O)Nc1ccc(N2C(=O)CS(=O)(=O)C2c2cccc(Oc3ccccc3)c2)cc1` (centres undefined), the TGI with DU-145 prostate was above 100 µM; in the assay with HCT-116 colon, 35.2 µM; with HOP-62 NSCLC, 38.9 µM; with HS 578T breast, 79.9 µM; in the assay with LOX IMVI melanoma, 35.5 µM; in the assay with MALME-3M melanoma, 38.8 µM. In addition, the TGI in the assay on NCI-H460 lung was found to be 34.7 µM; in the assay on NCI/ADR-RES ovarian, 48.7 µM; with SK-MEL-2 melanoma it was 37.3 µM; with SNB-19 CNS, 36.2 µM; in the assay with UACC-257 melanoma, 33.8 µM.
`CCSCC(=O)N1CCc2c([nH]c3ccccc23)C1=O`: the TGI with DU-145 prostate, in the assay on HCT-116 colon, in the assay on HOP-62 NSCLC, with HS 578T breast, in the assay on LOX IMVI melanoma and in the assay with MALME-3M melanoma was above 100 µM each time. The TGI in the assay on NCI-H460 lung, in the assay with NCI/ADR-RES ovarian, in the assay with SK-MEL-2 melanoma, in the assay on SNB-19 CNS and in the assay on UACC-257 melanoma was above 100 µM each time.
As to `NC(CCl)=NC1CN2CCC1CC2` (centres undefined), the TGI with DU-145 prostate, with HCT-116 colon, in the assay with HOP-62 NSCLC, in the assay on HS 578T breast, in the assay with LOX IMVI melanoma and in the assay with MALME-3M melanoma was above 100 µM each time. Moreover, the TGI in the assay on NCI-H460 lung, with NCI/ADR-RES ovarian, in the assay with SK-MEL-2 melanoma, with SNB-19 CNS and with UACC-257 melanoma was above 100 µM in each case.
In the case of `N#Cc1nc(C(F)(F)F)oc1N`, the TGI in the assay on DU-145 prostate, with HCT-116 colon, in the assay on HOP-62 NSCLC, in the assay on HS 578T breast, with LOX IMVI melanoma and in the assay with MALME-3M melanoma was above 100 µM each time. Also, the TGI in the assay on NCI-H460 lung, in the assay on NCI/ADR-RES ovarian, in the assay on SK-MEL-2 melanoma, in the assay on SNB-19 CNS and with UACC-257 melanoma was above 100 µM each time.
On to `Cc1ccc(S(=O)(=O)NC(=O)NC(Cc2ccccc2)C(=O)O)cc1` (centres undefined), for which the TGI in the assay on DU-145 prostate, in the assay with HCT-116 colon, in the assay on HOP-62 NSCLC, in the assay with HS 578T breast, in the assay with LOX IMVI melanoma and with MALME-3M melanoma was above 100 µM each time. Also, the TGI in the assay with NCI-H460 lung, in the assay with NCI/ADR-RES ovarian, in the assay on SK-MEL-2 melanoma, in the assay with SNB-19 CNS and in the assay with UACC-257 melanoma was above 100 µM each time.
`CN1[C@@H]2CCCC[C@H]2N(C)P1(=O)C(O)/C=C/c1ccccc1` (some centres undefined): the TGI in the assay with DU-145 prostate, in the assay on HCT-116 colon, in the assay with HOP-62 NSCLC, in the assay with HS 578T breast, in the assay on LOX IMVI melanoma and in the assay on MALME-3M melanoma was above 100 µM in each case. Also, the TGI in the assay with NCI-H460 lung, in the assay with NCI/ADR-RES ovarian, in the assay on SK-MEL-2 melanoma, with SNB-19 CNS and in the assay on UACC-257 melanoma was above 100 µM in each case.
Regarding `Nc1nc2cc(CNc3ccc(C(=O)O)cc3)ccc2nc1-c1ccccc1`, the TGI in the assay on DU-145 prostate, in the assay with HCT-116 colon, in the assay with HOP-62 NSCLC, in the assay on HS 578T breast, in the assay with LOX IMVI melanoma and in the assay on MALME-3M melanoma was above 100 µM each time. Further, the TGI with NCI-H460 lung, in the assay with NCI/ADR-RES ovarian, in the assay with SK-MEL-2 melanoma, in the assay with SNB-19 CNS and in the assay with UACC-257 melanoma was above 100 µM each time.
Turning to `COc1ccc2c(c1)c(=O)c1c(NCCCN(C)CCCNc3ccc4c(=O)n(CCN(C)C)c(=O)n5c6ccc(OC)cc6c(=O)c3c45)ccc3c(=O)n(CCN(C)C)c(=O)n2c31`, the TGI in the assay with DU-145 prostate worked out at 1.18 µM; with HCT-116 colon, 1.13 µM; with HOP-62 NSCLC it was 1.04 µM; with HS 578T breast, 1.73 µM; with LOX IMVI melanoma it was 0.161 µM; in the assay on MALME-3M melanoma, 2.42 µM. In addition, the TGI is 0.209 µM in the assay on NCI-H460 lung; 2.26 µM in the assay on NCI/ADR-RES ovarian; 2.44 µM in the assay with SK-MEL-2 melanoma; 2.17 µM in the assay with SNB-19 CNS; 2.11 µM with UACC-257 melanoma.
`NC(Cc1ccccc1)=NCC(=O)O`: the TGI in the assay on DU-145 prostate, in the assay with HCT-116 colon, with HOP-62 NSCLC, in the assay with HS 578T breast, in the assay on LOX IMVI melanoma and in the assay with MALME-3M melanoma was above 100 µM each time. The TGI with NCI-H460 lung, in the assay with NCI/ADR-RES ovarian, in the assay with SK-MEL-2 melanoma, with SNB-19 CNS and with UACC-257 melanoma was above 100 µM each time.
As for `CCCN=C1Nc2ccccc2[C@@H]2N(C)c3ccccc3C(C)C[C@]12C` (some centres undefined), the TGI in the assay with DU-145 prostate is above 100 µM; with HCT-116 colon, 30.4 µM; in the assay with HOP-62 NSCLC, 32.1 µM; in the assay on HS 578T breast, 41.9 µM; with LOX IMVI melanoma, 27.7 µM; in the assay with MALME-3M melanoma, 32.5 µM. For the same compound, the TGI was determined as 55.4 µM with NCI-H460 lung; 52 µM in the assay on NCI/ADR-RES ovarian; 28.1 µM in the assay with SK-MEL-2 melanoma; 44.8 µM in the assay on SNB-19 CNS; 25.6 µM in the assay on UACC-257 melanoma.
For `COc1cc(CCNC2=CC(=O)c3cccnc3C2=O)ccc1O`, the TGI in the assay on DU-145 prostate came to 3.11 µM; in the assay with HCT-116 colon, 4.8 µM; with HOP-62 NSCLC it was 2.86 µM; in the assay on HS 578T breast, 3.56 µM; in the assay on LOX IMVI melanoma, 1.41 µM; in the assay on MALME-3M melanoma it was 2.32 µM. Moreover, the TGI with NCI-H460 lung worked out at 2.65 µM; in the assay with NCI/ADR-RES ovarian, 11.5 µM; with SK-MEL-2 melanoma it was 3.46 µM; with SNB-19 CNS it was 4.04 µM; in the assay with UACC-257 melanoma, 2.18 µM.
`COC(=O)c1ccc(CCC2=CC(=O)C(Br)=CC2=O)cc1`: the TGI with DU-145 prostate is 32 µM; with HCT-116 colon, 30.3 µM; with HOP-62 NSCLC it was 31.6 µM; in the assay on HS 578T breast, 45 µM; in the assay on LOX IMVI melanoma, 33.3 µM; in the assay with MALME-3M melanoma it was 30.6 µM. In addition, the TGI in the assay on NCI-H460 lung turned out to be 34.5 µM; with NCI/ADR-RES ovarian, 43.8 µM; with SK-MEL-2 melanoma, 31.9 µM; in the assay on SNB-19 CNS, 29.2 µM; in the assay with UACC-257 melanoma, 29 µM.
